{"source": "patent US20120264825A1", "about": "“Amino Acid Perhydrates, Process for Their Preparation and Uses thereof” (priority 2009, published 2012)", "key": {"[1]": {"experimental": "The compounds may be kept, for example, in closed vessels in a 4° C. refrigerator."}, "[2]": {"conditions": "peak appears above the melting temperature; 2 degree/min under nitrogen flow", "experimental": "TG and DSC studies were performed on Thermobalance, TG50 and differential scanning calorimeter, DSC 822 (Mettler, Toledo) in the range 25-200° C. under nitrogen flow at a heating rate of 2 degree/min."}}, "data": [{"smiles": "N[C@@H](CO)C(=O)O.OO", "note": "[Example 1, L-Serine Mono Hydrogen Peroxide Solvate C3H7NO3.H2O2]", "values": [{"measurement": "hydrogen peroxide concentration on storage", "setting": "[1]; room temperature, several months", "result": "maintained constant hydrogen peroxide concentration for several months"}, {"measurement": "loss of active oxygen on storage", "setting": "[1]; stored at room temperature for at least three weeks", "result": "no loss of active oxygen"}, {"measurement": "exothermic decomposition peak (DSC)", "setting": "[2]", "result": "about 85 °C"}]}]}
